How the values were obtained:
[1] = target: human plasma kallikrein (Homo sapiens, UniProt P03952); assay: Kallikrein inhibition assay utilizing a quenched AMC peptide substrate (FLINT); format: biochemical; conditions: 11-point, 3-fold serial dilution, top 1 μM; 30 min preincubation; 2 nM kallikrein; 50 μM Z-Gly-Pro-Arg-AMC; kinetic reads over 30 min
Method in brief: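 Human plasma kallikrein (2 nM final) was pre-incubated 30 min at room temperature with compound (11-point 3-fold series, top 1 μM, 2% DMSO) in Tris pH 7.5, NaCl, CaCl2, BSA, CHAPS buffer. Reaction started with 50 μM Z-Gly-Pro-Arg-AMC (KM 40 μM), and fluorescence (340/440 nm) was read kinetically over 30 min. IC50 came from a 4-parameter logistic fit.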

[2] = target: Factor XIa (Homo sapiens, UniProt P03951); assay: Factor XIa inhibition assay utilizing a fluorophore-quencher pair peptide substrate (FLINT); format: biochemical; conditions: 11-point, 3-fold serial dilution, top 100 nM; 30 min preincubation; 15 μM 5Fam-KLTRAETV-K5Tamra substrate; kinetic reads over 30 min; read-out: FXIa Inhibition IC50
Method in brief: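 FXIa ([…]) preincubated 30 min with compound (11-point, 3-fold, top 100 nM, 2% DMSO) in Tris pH 7.5, NaCl, CaCl2, BSA, CHAPS; 15 μM 5Fam-KLTRAETV-K5Tamra substrate then added. Fluorescence (485/520 nm) read kinetically over 30 min at room temperature; IC50 by 4-parameter fit.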

Chain of Factor XIa (P03951 388-625 limits assumed): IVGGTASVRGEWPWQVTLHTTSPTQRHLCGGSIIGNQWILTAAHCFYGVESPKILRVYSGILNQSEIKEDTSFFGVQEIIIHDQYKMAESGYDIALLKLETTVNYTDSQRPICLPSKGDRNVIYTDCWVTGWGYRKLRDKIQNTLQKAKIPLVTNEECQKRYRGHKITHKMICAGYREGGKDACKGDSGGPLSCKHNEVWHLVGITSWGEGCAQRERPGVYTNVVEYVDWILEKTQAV
Chain of Factor XIa (P03951 19-387 partner limits assumed): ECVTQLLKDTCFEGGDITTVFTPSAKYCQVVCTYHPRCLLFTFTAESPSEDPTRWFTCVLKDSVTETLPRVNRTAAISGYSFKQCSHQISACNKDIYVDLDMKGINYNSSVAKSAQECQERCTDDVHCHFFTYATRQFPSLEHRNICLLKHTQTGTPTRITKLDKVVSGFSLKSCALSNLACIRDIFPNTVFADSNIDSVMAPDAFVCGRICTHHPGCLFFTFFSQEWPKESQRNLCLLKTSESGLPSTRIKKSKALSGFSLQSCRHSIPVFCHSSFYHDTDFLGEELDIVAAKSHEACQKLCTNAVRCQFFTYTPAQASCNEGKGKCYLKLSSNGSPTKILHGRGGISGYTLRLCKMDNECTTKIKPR
Chain of human plasma kallikrein (P03952 391-638 limits assumed): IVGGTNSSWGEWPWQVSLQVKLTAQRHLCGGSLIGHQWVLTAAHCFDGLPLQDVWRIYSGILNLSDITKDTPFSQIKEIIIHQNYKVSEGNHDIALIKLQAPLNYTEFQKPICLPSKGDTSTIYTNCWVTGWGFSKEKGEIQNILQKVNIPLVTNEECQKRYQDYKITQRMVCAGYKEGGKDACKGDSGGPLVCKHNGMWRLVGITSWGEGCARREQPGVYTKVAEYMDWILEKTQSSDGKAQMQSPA
Chain of human plasma kallikrein (P03952 20-390 partner limits assumed): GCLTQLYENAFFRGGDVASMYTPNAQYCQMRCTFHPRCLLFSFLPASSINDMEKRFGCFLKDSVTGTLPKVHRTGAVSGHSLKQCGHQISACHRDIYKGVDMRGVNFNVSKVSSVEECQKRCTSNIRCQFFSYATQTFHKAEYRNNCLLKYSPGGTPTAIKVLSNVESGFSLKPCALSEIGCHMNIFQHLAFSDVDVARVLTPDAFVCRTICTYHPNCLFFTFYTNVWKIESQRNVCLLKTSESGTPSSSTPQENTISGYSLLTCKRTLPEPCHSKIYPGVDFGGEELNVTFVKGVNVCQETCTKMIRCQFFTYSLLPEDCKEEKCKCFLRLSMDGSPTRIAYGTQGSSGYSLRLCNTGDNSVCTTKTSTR

| SMILES | IC50 [1] [nM] | IC50 [2] [nM] |
| --- | --- | --- |
| COCCn1cc2cc(NC(=O)C3CCC4CC(c5c(-n6cnnn6)ccc(Cl)c5F)=CC(=O)N43)ccc2n1 (single isomer, unassigned) [ID No. 3, (3S*)-7-(3-chloro-2-fluoro-6-(1H-tetrazol-1-yl)phenyl)-N-(2-(2-methoxyethyl)-2H-indazol-5-yl)-5-oxo-1,2,3,5,8,8a-hexahydroindolizine-3-carboxamide] | 35.6 | 6 |
| O=C(O)/C=C/c1ccc(NC(=O)[C@@H]2CCC3CC(c4c(-n5cnnn5)ccc(Cl)c4F)=CC(=O)N32)cc1 (mixture of isomers) [ID No. 32, (E)-3-(4-((3S)-7-(3-Chloro-2-fluoro-6-(1H-tetrazol-1-yl)phenyl)-5-oxo-1,2,3,5,8,8a-hexahydroindolizine-3-carboxamido)phenyl)acrylic acid] | 14.4 | 1.6 |
| NC(=O)c1ccc(NC(=O)[C@@H]2CC[C@@H]3CC(c4c(-n5cc(C(F)(F)F)nn5)ccc(Cl)c4F)=CC(=O)N32)cc1F [ID No. 24, (3S,8aR)—N-(4-Carbamoyl-3-fluorophenyl)-7-(3-chloro-2-fluoro-6-(4-(trifluoromethyl)-1H-1,2,3-triazol-1-yl)phenyl)-5-oxo-1,2,3,5,8,8a-hexahydroindolizine-3-carboxamide] | 76.1 | 38.2 |
| CO[C@@H]1C[C@@H](C(=O)Nc2ccc3ncccc3c2)N2C(=O)C=C(c3c(-n4cnnn4)ccc(Cl)c3F)CC12 (mixture of isomers) [ID No. 45, (1R,3S)-7-[3-Chloro-2-fluoro-6-(tetrazol-1-yl)phenyl]-1-methoxy-5-oxo-N-(6-quinolyl)-2,3,8,8a-tetrahydro-1H-indolizine-3-carboxamide] | 14 | 7.8 |
| O=C(Nc1ccc(-c2nc(=O)o[nH]2)c(F)c1)[C@@H]1CC[C@H]2CC(c3c(-n4cnnn4)ccc(Cl)c3F)=CC(=O)N21 (single isomer, unassigned) [ID No. 36, (3S,8aS*)-7-(3-Chloro-2-fluoro-6-(1H-tetrazol-1-yl)phenyl)-N-(3-fluoro-4-(5-oxo-2,5-dihydro-1,2,4-oxadiazol-3-yl)phenyl)-5-oxo-1,2,3,5,8,8a-_hexahydroindolizine-3-carboxamide] | 8.8 | 0.4 |
| O=C(Nc1ccc(-n2nccn2)cc1)[C@@H]1CCC2CC(c3c(-n4cnnn4)ccc(Cl)c3F)=CC(=O)N21 (mixture of isomers) [ID No. 49, (3S)—N-(4-(2H-1,2,3-triazol-2-yl)phenyl)-7-(3-chloro-2-fluoro-6-(1H-tetrazol-1-yl)phenyl)-5-oxo-1,2,3,5,8,8a-hexahydroindolizine-3-carboxamide] | 54.2 | 30.5 |
| O=C(Nc1ccc2nn(C(F)F)cc2c1)[C@@H]1CC[C@@H]2CC(c3c(-n4cnnn4)ccc(Cl)c3F)=CC(=O)N21 (single isomer, unassigned) [ID No. 23] | 31.1 | 8.3 |
| CO[C@H]1C[C@@H](C(=O)Nc2ccc3nccnc3c2)N2C(=O)C=C(c3c(-n4cnnn4)ccc(Cl)c3F)CC12 (mixture of isomers) [ID No. 28, (1S,3S)-7-[3-Chloro-2-fluoro-6-(tetrazol-1-yl)phenyl]-1-methoxy-5-oxo-N-quinoxalin-6-yl-2,3,8,8a-tetrahydro-1H-indolizine-3-carboxamide] | 431 | ~189 |
| NC(=O)c1ccc(NC(=O)[C@@H]2CCC3CC(c4c(-n5cnnn5)ccc(Cl)c4F)=CC(=O)N32)cc1 (mixture of isomers) [ID No. 41, (3S)—N-(4-Carbamoylphenyl)-7-(3-chloro-2-fluoro-6-(1H-tetrazol-1-yl)phenyl)-5-oxo-1,2,3,5,8,8a-hexahydroindolizine-3-carboxamide] | 79.7 | 7.4 |
| CN(C)c1ccc2cc(NC(=O)[C@@H]3CC[C@@H]4CC(c5c(-n6cnnn6)ccc(Cl)c5F)=CC(=O)N43)ccc2n1 [ID No. 11, (3S,8aR)-7-(3-Chloro-2-fluoro-6-(1H-tetrazol-1-yl)phenyl)-N-(2-(dimethylamino)quinolin-6-yl)-5-oxo-1,2,3,5,8,8a-hexahydroindolizine-3-carboxamide] | 66.2 | 38.8 |

The next lines start with the values.

| IC50 [1] [nM] | IC50 [2] [nM] | SMILES |
| --- | --- | --- |
| 8 | 7.9 | CC1C[C@@H](C(=O)Nc2ccc3ncccc3c2)N2C(=O)C=C(c3c(-n4cnnn4)ccc(Cl)c3F)CC12 (mixture of isomers) [ID No. 82, (3S)-7-[3-Chloro-2-fluoro-6-(tetrazol-1-yl)phenyl]-1-methyl-5-oxo-N-(6-quinolyl)-2,3,8,8a-tetrahydro-1H-indolizine-3-carboxamide] |
| 57 | 31.8 | Cc1nc(-c2ccc(NC(=O)[C@@H]3CC[C@@H]4CC(c5c(-n6cnnn6)ccc(Cl)c5F)=CC(=O)N43)cc2)no1 (single isomer, unassigned) [ID No. 50] |
| 436 | 84.8 | Cn1nnnc1-c1ccc(NC(=O)[C@@H]2CCC3CC(c4c(-n5cnnn5)ccc(Cl)c4F)=CC(=O)N32)cc1 (mixture of isomers) [ID No. 70, (3S)-7-[3-Chloro-2-fluoro-6-(tetrazol-1-yl)phenyl]-N-[4-(1-methyltetrazol-5-yl)phenyl]-5-oxo-2,3,8,8a-tetrahydro-1H-indolizine-3-carboxamide] |
| 29.7 | 6.7 | Nc1noc2cc(NC(=O)[C@@H]3CCC4CC(c5c(-n6cnnn6)ccc(Cl)c5F)=CC(=O)N43)ccc12 (single isomer, unassigned) [ID No. 60, (3S,8aR*)—N-(3-Amino-1,2-benzoxazol-6-yl)-7-[3-chloro-2-fluoro-6-(tetrazol-1-yl)phenyl]-5-oxo-2,3,8,8a-tetrahydro-1H-indolizine-3-carboxamide] |
| 59 | 11.5 | O=C(Nc1ccc2ncoc2c1)[C@@H]1CCC2CC(c3c(-n4cnnn4)ccc(Cl)c3F)=CC(=O)N21 (mixture of isomers) [ID No. 54, (3S)—N-(Benzo[d]oxazol-6-yl)-7-(3-chloro-2-fluoro-6-(1H-tetrazol-1-yl)phenyl)-5-oxo-1,2,3,5,8,8a-hexahydroindolizine-3-carboxamide] |
| 56.2 | 11.1 | O=C(Nc1ccc2nc[nH]c2c1)[C@@H]1CCC2CC(c3c(-n4cnnn4)ccc(Cl)c3F)=CC(=O)N21 (mixture of isomers) [ID No. 53, (3S)—N-(1H-benzo[d]imidazol-6-yl)-7-(3-chloro-2-fluoro-6-(1H-tetrazol-1-yl)phenyl)-5-oxo-1,2,3,5,8,8a-hexahydroindolizine-3-carboxamide] |
| 20.4 | 0.7 | O=C(Nc1ccc(-c2nnn[nH]2)cc1)[C@@H]1CCC2CC(c3c(-n4cnnn4)ccc(Cl)c3F)=CC(=O)N21 (mixture of isomers) [ID No. 72, (3S)-7-[3-Chloro-2-fluoro-6-(tetrazol-1-yl)phenyl]-5-oxo-N-[4-(1H-tetrazol-5-yl)phenyl]-2,3,8,8a-tetrahydro-1H-indolizine-3-carboxamide] |
| 120 | > 50 | Cn1nc2ccc(NC(=O)C3CCC4CC(c5c(-n6cc(Cl)nn6)ccc(Cl)c5F)=CC(=O)N43)cc2n1 (centres unmarked) [compound 105] |
| 12.2 | 9.9 | CC1C[C@@H](C(=O)Nc2ccc3nccnc3c2)N2C(=O)C=C(c3c(-n4cnnn4)ccc(Cl)c3F)CC12 (mixture of isomers) [ID No. 85, (3S)-7-[3-Chloro-2-fluoro-6-(tetrazol-1-yl)phenyl]-1-methyl-5-oxo-N-quinoxalin-6-yl-2,3,8,8a-tetrahydro-1H-indolizine-3-carboxamide] |
| 115 | > 50 | CC(O)c1nc2cc(NC(=O)[C@@H]3CCC4CC(c5c(-n6cnnn6)ccc(Cl)c5F)=CC(=O)N43)ccc2s1 (mixture of isomers) [compound 91] |
| 36.6 | 1.9 | O=C(Nc1ccc(-c2nnn[nH]2)cc1)[C@@H]1CC[C@H]2CC(c3c(-n4cnnn4)ccc(Cl)c3F)=CC(=O)N21 (single isomer, unassigned) [ID No. 65, (3S,8aS*)-7-[3-Chloro-2-fluoro-6-(tetrazol-1-yl)phenyl]-5-oxo-N-[4-(1H-tetrazol-5-yl)phenyl]-2,3,8,8a-tetrahydro-1_H-indolizine-3-carboxamide] |
| 27.8 | 19.3 | CC1C[C@@H](C(=O)Nc2ccc3n[nH]cc3c2)N2C(=O)C=C(c3c(-n4cnnn4)ccc(Cl)c3F)CC12 (mixture of isomers) [ID No. 84, (3S)-7-[3-Chloro-2-fluoro-6-(tetrazol-1-yl)phenyl]-N-(2H-indazol-5-yl)-1-methyl-5-oxo-2,3,8,8a-tetrahydro-1H-indolizine-3-carboxamide] |
| 64.9 | 20.8 | CN(C)c1ccnc2ccc(NC(=O)C3CCC4CC(c5c(-n6cnnn6)ccc(Cl)c5F)=CC(=O)N43)cc12 (centres unmarked) [compound 87] |
| 149 | 2.5 | O=C(O)c1ccc(NC(=O)[C@@H]2CCC3CC(c4c(-n5cnnn5)ccc(Cl)c4F)=CC(=O)N32)cc1F (single isomer, unassigned) [ID No. 51, (3S,8aS*)-4-[[7-[3-Chloro-2-fluoro-6-(tetrazol-1-yl)phenyl]-5-oxo-2,3,8,8a-tetrahydro-1H-indolizine-3-carbonyl]amino]-2-fluoro-benzoic acid] |
| 20.3 | 0.6 | O=C(Nc1ccc(-c2nc(=O)o[nH]2)cc1)[C@@H]1CCC2CC(c3c(-n4cnnn4)ccc(Cl)c3F)=CC(=O)N21 (single isomer, unassigned) [ID No. 63, (3S,8aR*)-7-[3-Chloro-2-fluoro-6-(tetrazol-1-yl)phenyl]-5-oxo-N-[4-(5-oxo-2H-1,2,4-oxadiazol-3-yl)phenyl]-2,3,8,8a-tetrahydro-1H-indolizine-3-carboxamide] |

Reference: patent publication US12286429B2, “5-oxo-1,2,3,5,8,8a-hexahydroindolizine-3-carboxamide derivatives useful as a factor XIa inhibitors” (Janssen Pharmaceutica NV, priority 2021, dated 2025)
